In patent publication US10040748B2, “4-hydroxybutyric acid analogs” (Concert Pharmaceuticals, Inc., priority 2011, dated 2018):
Structures can show the parent of a compound that is named as a salt.

Key:
[1] = In vivo pharmacokinetic studies in rats (IV and PO dosing, plasma); settings: rat; for AUC0-∞ / CL / Vz / Cmax / Tmax: mean of N=4; for % F: 200 mg/kg PO vs IV, printed in AUC0-∞ column
Method: The pharmacokinetics of exemplary compounds was determined by comparison with 4-hydroxybutyric acid by dosing the compounds in rats according to the following study design and sampling procedure.

[2] = humans; cited from earlier work
[3] = 200 mg/kg PO, mean of N=4, Cmin at 4 hr
[4] = 200 mg/kg IV, mean of N=4, Cmin at 2 hr
[5] = 200 mg/kg IV, mean of N=4, calculated up to 2 hr
[6] = 200 mg/kg PO, mean of N=4, calculated up to 4 hr

SMILES	concentration at 2 hr ([1]; plasma, 200 mg/kg IV, mean of N=4, Cmin at 2 hr) [ng/mL]	Cmin [1, 3] [ng/mL]	half life [2] [min]	AUC0-∞ ([1]; 200 mg/kg IV) [µg·h/mL]	CL ([1]; 200 mg/kg IV) [mL/min/kg]	Vz ([1]; 200 mg/kg IV) [L/kg]	Cmin [1, 4] [ng/mL]	t1/2 [1, 5] [min]	% F [1] [%]	AUC0-∞ ([1]; 200 mg/kg PO) [µg·h/mL]	Cmax ([1]; 200 mg/kg PO) [ng/mL]	Tmax ([1]; 200 mg/kg PO) [min]	t1/2 [1, 6] [min]	pharmacokinetics relative to 4-hydroxybutyric acid, sodium salt ([1]; 200 mg/kg, comparison of AUC0-∞ and t1/2)	AUC0-∞ fold change (printed in brackets under the PO AUC) ([1]; 200 mg/kg PO, reference not given, apparently vs 4-hydroxybutyric acid, sodium salt)
O=C(O)CCCO [4-hydroxybutyric acid, sodium salt, sodium salt of 4-hydroxybutyric acid, reference compound]	8000	2000	30 to 60												
[2H]C([2H])(O)CC([2H])([2H])C(=O)[O-].[Na+] [IV-b, sodium salt, Sodium 2,2,4,4-d4-4-hydroxybutanoate]		5000		651	5	0.3	76000	37.8	40	260	151000	37.8	56.4	considerably increased	
[2H]C([2H])(CCO)C(=O)[O-].[Na+] [Sodium 2,2-d2-4-Hydroxybutanoate]		1000		476	7	0.2	19000	19.8	41	193	153000	37.8	35.4		(+1.1X)
